Experimental data published in patent US20250206761A1, “HALOINDOLE MACROCYCLIC COMPOUNDS FOR THE TREATMENT OF CANCER” (Hoffmann-La Roche Inc., priority 2022, published 2025).

Tests used:
[1] = test system: phosphorylation of ERK, KRAS G12C in NCJ-H358 cells; experiment: pERK inhibition assay, KRAS G12C; assay type: cell-based, human; conditions: 4 hours
In short: (§1)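 Plate cells, attach overnight; add compound (0.5% DMSO) for 4 h; fix in 4% formaldehyde, permeabilize with chilled methanol; block; incubate pERK antibody overnight at 4 °C, then HRP secondary; develop with TMB, stop, read OD450; fit 4-parameter curve for IC50.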

[2] = test system: phosphorylation of ERK, KRAS G12V in SW620; experiment: pERK inhibition assay, KRAS G12V; assay type: cell-based, human
In short: as §1

[3] = test system: phosphorylation of ERK, KRAS G12D in AGS cells; experiment: pERK inhibition assay, KRAS G12D; assay type: cell-based, human; conditions: Homo sapiens, 4 hours
Experimental: This assay is to measure the ability of test compounds in inhibiting the phosphorylation of ERK, the downstream signaling of KRAS G12C in NCJ-H358 cells, KRAS G12D in AGS cells, and KRAS G12V in SW620. NCJ-H358 (ATCC-CRL5807) cells, AGS (ATCC-CRL-1739) cells, SW620 (ATCC-CCL-227) cells were all grown and maintained using RPMI-1640 medium (Thermo Fisher Scientific) with 10% fetal bovine serum and 1% penicillin/streptomycin. On the day prior to compound addition, cells were plated in tissue culture-treated 96 well plates (Corning-3699) at a density of 30,000 cell/well, 20,000 cell/well, 30,000 cell/well for NCJ-H358, AGS and SW620 respectively, and allowed for attachment overnight. Diluted compounds were then added in a final concentration of 0.5% DMSO. After 4 hours of incubation, the medium was removed, 100 μL of 4% formaldehyde was added, and the assay plates were incubated at room temperature for 20 minutes. The plates were then washed once with phosphate buffered saline (PBS), and permeabilized with 100 μL of chilled methanol for 10 minutes. Non-specific antibody binding to the plates was blocked using 50 μL 1×BSA blocking buffer (Thermo-37520, 10-fold dilution by Phosphate-Buffered Saline Tween (PBST) for at least 1 hour at room temperature.
The amount of phosphor-ERK was determined using an antibody specific for phosphorylated form of ERK. Primary antibody (pERK, CST-4370, Cell Signaling Technology) was diluted 1:300 in blocking buffer, with 50 μL aliquoted to each well, and incubated overnight at 4′° C. Cells was washed five times for 5 minutes with PBST. Secondary antibody ([…] anti-rabbit IgG, CST-7074, Cell Signaling Technology) was diluted 1:1000 in blocking buffer, and 50 μL was added to each well and incubated 1-2 hrs at room temperature. Cells was washed 5 times for 5 minutes with PBST, 100 μL TMB ELISA substrate (abcam-ab171523) were added and gently shake for 20 minutes. 50 μL stop solution (abcam-ab171529) were added, and then read the signal (OD450) by EnVision.
IC50 was determined by fitting a 4-parameter sigmoidal concentration response model.

SW620 (ATCC-CCL-227) = experiment: Cell viability assay, G12V (SW620); assay type: cell-based, human; conditions: KRAS cell viability, SW620, 72 hrs, Cell Counting Kit-8
In short: (§2)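 Read-out is CCK-8 absorbance (OD450 minus OD650, 2 hrs after reagent), reflecting NADPH after 72 hrs of compound exposure in 0.5% DMSO. Seeding density was 5,000 cells/well for NCI-H358 and 2,000 for AGS and SW620. IC50 derived by 4-parameter sigmoidal fitting.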

KRAS G12C-BRAF complex = KRAS G12C-BRAF complex (Homo sapiens (Human), UniProt P01116+P62937, G12C); experiment: KRAS-BRAF with CYPA (500 nM) interaction assay (TR-FRET), G12C; assay type: biochemical
Sequence of KRAS G12C-BRAF complex (P01116-2 other isoform, or with tags, fused parts or gaps G12C): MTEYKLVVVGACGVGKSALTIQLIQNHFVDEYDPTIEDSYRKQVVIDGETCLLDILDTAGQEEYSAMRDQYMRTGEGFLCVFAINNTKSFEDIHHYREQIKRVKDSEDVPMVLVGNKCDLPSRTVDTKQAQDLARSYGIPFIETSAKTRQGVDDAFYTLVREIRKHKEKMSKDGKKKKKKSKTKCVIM
Sequence of KRAS G12C-BRAF complex (P62937 whole entry): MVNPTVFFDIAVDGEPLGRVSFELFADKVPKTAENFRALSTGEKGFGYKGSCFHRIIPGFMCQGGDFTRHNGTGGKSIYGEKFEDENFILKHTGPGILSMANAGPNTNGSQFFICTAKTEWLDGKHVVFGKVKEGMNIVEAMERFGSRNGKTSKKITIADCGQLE

[4] = target: KRAS G12D binding to BRAF (Homo sapiens (Human), UniProt P01116+P62937, G12D); experiment: KRAS-BRAF with CYPA (500 nM) interaction assay (TR-FRET), G12D; assay type: biochemical
Sequence of KRAS G12D binding to BRAF (P01116-2 other isoform, or with tags, fused parts or gaps G12D): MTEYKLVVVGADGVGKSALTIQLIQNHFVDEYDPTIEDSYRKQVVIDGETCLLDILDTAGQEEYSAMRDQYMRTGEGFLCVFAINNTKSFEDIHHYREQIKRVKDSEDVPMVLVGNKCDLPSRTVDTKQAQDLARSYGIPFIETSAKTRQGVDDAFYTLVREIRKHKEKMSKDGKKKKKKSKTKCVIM
Sequence of KRAS G12D binding to BRAF (P62937 whole entry): as the sequence (P62937 whole entry) above

[5] = target: KRAS G12V binding to BRAF (Homo sapiens (Human), UniProt P01116+P62937, G12V); experiment: KRAS-BRAF with CYPA (500 nM) interaction assay (TR-FRET), G12V; assay type: biochemical
Sequence of KRAS G12V binding to BRAF (P01116-2 other isoform, or with tags, fused parts or gaps G12V): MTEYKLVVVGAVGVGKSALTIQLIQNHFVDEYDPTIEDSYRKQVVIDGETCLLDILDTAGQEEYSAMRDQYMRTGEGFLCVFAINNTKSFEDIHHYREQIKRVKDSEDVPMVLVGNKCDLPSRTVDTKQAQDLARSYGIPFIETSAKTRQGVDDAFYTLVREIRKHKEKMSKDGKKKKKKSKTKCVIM
Sequence of KRAS G12V binding to BRAF (P62937 whole entry): as the sequence (P62937 whole entry) above
In short: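 A TR-FRET assay measured how compound, in the presence of CYPA, disrupts binding of GMPPNP-loaded 6His-KRAS G12V to BRAF. The buffer contained 25 mM HEPES PH=7.4, 0.002% Tween20, 0.1% BSA, 100 mM NaCl, 5 mM MgCl2 and 10 μM GMPPNP. Compounds ran as a 16-point 3-fold dilution series from 10 μM for 3 hours.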

[6] = test system: AGS (ATCC-CRL-1739) cells; experiment: Cell viability assay, G12D (AGS); assay type: cell-based, human; conditions: KRAS cell viability, 72 hrs, Cell Counting Kit-8
In short: as §2

[7] = test system: NCI-H358 (ATCC-CRL5807) cells; experiment: Cell viability assay, G12C (NCI-H358); assay type: cell-based, human; conditions: KRAS cell viability, NCI-H358, 72 hrs, Cell Counting Kit-8
Experimental: The purpose of this cellular assay was to determine the effects of test compounds on the proliferation of human cancer cell lines NCI-H358 (ATCC-CRL5807) cells, AGS (ATCC-CRL-1739) cells, SW620 (ATCC-CCL-227) over a 3-day treatment period by quantifying the amount of NADPH present at endpoint using Cell Counting Kit-8.
Cells were seeded at 5,000 cells/well (NCI-H358), 2,000 cells/well (AGS) 2,000 cells/well (SW620) in 96-well assay plates (Corning-3699) and incubated overnight. On the day of the assay, diluted compounds were then added in a final concentration of 0.5% DMSO. After 72 hrs incubation, a tenth of the volume of cell counting kit 8 (Dnjindo-CK04) was added into each well. Read the signal (OD450 minus OD650) using EnVision after 2 hrs incubation. IC50 was determined by fitting a 4-parameter sigmoidal concentration response model.

[8] = Homo sapiens, SW-620, SW620, 4 hours

Row | IC50 (SW620 (ATCC-CCL-227)) | IC50 [7] | IC50 [1] | IC50 ([2]; SW620, 4 hours) | IC50 [6] | Compound | IC50 ([1]; Homo sapiens) | IC50 [2, 8] | IC50 [3] | IC50 (SW620 (ATCC-CCL-227); Homo sapiens, SW-620) | IC50 (KRAS G12C-BRAF complex) | IC50 [4] | IC50 [5] | IC50 ([6]; Homo sapiens) | IC50 ([7]; Homo sapiens)
1 |  |  |  |  |  | CO[C@@H](C)c1ncc(N2CCN(C)CC2)cc1-c1c2c3cc(c(C)cc3n1CC(F)(F)F)-c1csc(n1)C[C@H](NC(=O)[C@H](C(C)C)N(C)C(=O)[C@H]1CCN(C(=O)[C@H](F)Cl)C1)C(=O)N1CCC[C@H](N1)C(=O)OCC(C)(C)C2 (atropisomer, axis not shown; (M)) [Example 3, (3S)-1-[(2R)-2-chloro-2-fluoro-acetyl]-N-[(1S)-1-[[(7S,13S)-(20M)-20-[2-[(1S)-1-methoxyethyl]-5-(4-methylpiperazin-1-yl)-3-pyridyl]-17,17,24-trimethyl-8,14-dioxo-21-(2,2,2-trifluoroethyl)-15-oxa-4-thia-9,21,27,28-tetrazapentacyclo[17.5.2.1^2,5.1^9,13.0^22,26]octacosa-1(25),2,5(28),19,22(26),23-hexaen-7-yl]carbamoyl]-2-methyl-propyl]-N-methyl-pyrrolidine-3-carboxamide] | 0.032 µM | 0.138 µM | 0.114 µM |  |  |  |  |  | 
2 |  |  |  |  |  | CO[C@@H](C)c1ncc(N2CCOCC2)cc1-c1c2c3cc(c(F)cc3n1CC(F)(F)F)-c1csc(n1)C[C@H](NC(=O)[C@H](C(C)C)N(C)C(=O)[C@H]1CCN(C(=O)[C@H](F)Cl)C1)C(=O)N1CCC[C@H](N1)C(=O)OCC(C)(C)C2 (atropisomer, axis not shown; (M)) [Example 24, (3S)-1-[(2R)-2-chloro-2-fluoro-acetyl]-N-[(1S)-1-[[(7S,13S)-24-fluoro-(20M)-20-[2-[(1S)-1-methoxyethyl]-5-morpholino-3-pyridyl]-17,17-dimethyl-8,14-dioxo-21-(2,2,2-trifluoroethyl)-15-oxa-4-thia-9,21,27,28-tetrazapentacyclo[17.5.2.1^2,5.1^9,13.0^22,26]octacosa-1(25),2,5(28),19,22(26),23-hexaen-7-yl]carbamoyl]-2-methyl-propyl]-N-methyl-pyrrolidine-3-carboxamide] | 0.005 µM | 0.018 µM | 0.012 µM | 0.034 µM | 0.053 µM | > 10 µM | 1.39 µM | 0.283 µM | 
3 |  |  |  |  |  | CO[C@@H](C)c1ncc(N2CCN(CC(F)(F)F)CC2)cc1-c1c2c3cc(c(F)cc3n1CC(F)(F)F)-c1csc(n1)C[C@H](NC(=O)[C@H](C(C)C)N1CC[C@]3(CCN(C(=O)[C@H](F)Cl)C3)C1=O)C(=O)N1CCC[C@H](N1)C(=O)OCC(C)(C)C2 (atropisomer, axis not shown; (M)) [Example 45, (2S)-2-[(5S)-7-[(2R)-2-chloro-2-fluoro-acetyl]-1-oxo-2,7-diazaspiro[4.4]nonan-2-yl]-N-[(7S,13S)-24-fluoro-(20M)-20-[2-[(1S)-1-methoxyethyl]-5-[4-(2,2,2-trifluoroethyl)piperazin-1-yl]-3-pyridyl]-17,17-dimethyl-8,14-dioxo-21-(2,2,2-trifluoroethyl)-15-oxa-4-thia-9,21,27,28-tetrazapentacyclo[17.5.2.1^2,5.1^9,13.0^22,26]octacosa-1(25),2,5(28),19,22(26),23-hexaen-7-yl]-3-methyl-butanamide] | 0.007 µM | 0.02 µM |  | 0.121 µM | 0.01 µM | 4.97 µM | 0.299 µM | 0.135 µM | < 0.001 µM
4 |  |  |  |  |  | CO[C@@H](C)c1ncc(N2CCN(CC(F)(F)F)CC2)cc1-c1c2c3cc(c(F)cc3n1CC(F)(F)F)-c1csc(n1)C[C@H](NC(=O)[C@H](C(C)C)N1CCC3(CCN(C(=O)[C@H](F)Cl)CC3)C1=O)C(=O)N1CCC[C@H](N1)C(=O)OCC(C)(C)C2 (atropisomer, axis not shown; (M)) [Example 47, (2S)-2-[8-[(2R)-2-chloro-2-fluoro-acetyl]-1-oxo-2,8-diazaspiro[4.5]decan-2-yl]-N-[(7S,13S)-24-fluoro-(20M)-20-[2-[(1S)-1-methoxyethyl]-5-[4-(2,2,2-trifluoroethyl)piperazin-1-yl]-3-pyridyl]-17,17-dimethyl-8,14-dioxo-21-(2,2,2-trifluoroethyl)-15-oxa-4-thia-9,21,27,28-tetrazapentacyclo[17.5.2.1^2,5.1^9,13.0^22,26]octacosa-1(25),2,5(28),19,22(26),23-hexaen-7-yl]-3-methyl-butanamide] | 0.026 µM | 0.176 µM |  | > 5 µM | 0.079 µM | > 10 µM | > 10 µM | > 5 µM | 0.03 µM
5 | 0.103 µM | < 0.001 µM | 0.001 µM | 0.045 µM | 0.223 µM | CCn1c(-c2cc(N3CCN(CC(F)(F)F)CC3)cnc2[C@H](C)OC)c2c3cc(c(F)cc31)-c1csc(n1)C[C@H](NC(=O)[C@H](C(C)C)N1CC[C@]3(CCN(C(=O)[C@H](F)Cl)C3)C1=O)C(=O)N1CCC[C@H](N1)C(=O)OCC(C)(C)C2 [Example 38, (2S)-2-[(5S)-7-[(2R)-2-chloro-2-fluoro-acetyl]-1-oxo-2,7-diazaspiro[4.4]nonan-2-yl]-N-[(7S,13S)-21-ethyl-24-fluoro-(20M)-20-[2-[(1S)-1-methoxyethyl]-5-[4-(2,2,2-trifluoroethyl)piperazin-1-yl]-3-pyridyl]-17,17-dimethyl-8,14-dioxo-15-oxa-4-thia-9,21,27,28-tetrazapentacyclo[17.5.2.1^2,5.1^9,13.0^22,26]octacosa-1(25),2,5(28),19,22(26),23-hexaen-7-yl]-3-methyl-butanamide] |  |  |  |  | 0.032 µM | 3.3 µM | 0.91 µM |  | 
